Reference: patent US8278336B2, “Compounds” (Boehringer Ingelheim International GmbH, priority 2007, dated 2012)

molecular target: T1, human CGRP receptor (Homo sapiens, UniProt O60894+Q16602); experiment: Binding studies with SK-N-MC cells (125I-CGRP displacement on SK-N-MC membranes); conditions: 50 pM 125I-iodotyrosyl-CGRP, 180 minutes at ambient temperature
T1 construct: SK-N-MC membranes (˜20 μg protein) are incubated for 180 minutes at ambient temperature; endogenous in cells; host or cells: SK-N-MC cells (membrane preparation)
T1 sequence (Q16602 23-461): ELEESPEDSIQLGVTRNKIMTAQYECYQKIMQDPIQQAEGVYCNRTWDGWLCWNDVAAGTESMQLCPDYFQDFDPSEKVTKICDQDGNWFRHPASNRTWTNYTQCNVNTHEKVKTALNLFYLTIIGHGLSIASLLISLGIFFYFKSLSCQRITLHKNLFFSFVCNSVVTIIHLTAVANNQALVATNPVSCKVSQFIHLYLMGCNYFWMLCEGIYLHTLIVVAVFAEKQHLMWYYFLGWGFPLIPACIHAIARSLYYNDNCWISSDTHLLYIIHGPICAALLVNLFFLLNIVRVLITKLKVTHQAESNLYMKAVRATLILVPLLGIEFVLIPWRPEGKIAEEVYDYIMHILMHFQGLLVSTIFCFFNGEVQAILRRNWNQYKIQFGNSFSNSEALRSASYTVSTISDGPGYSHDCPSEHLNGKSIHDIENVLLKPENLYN
T1 sequence (O60894 27-148): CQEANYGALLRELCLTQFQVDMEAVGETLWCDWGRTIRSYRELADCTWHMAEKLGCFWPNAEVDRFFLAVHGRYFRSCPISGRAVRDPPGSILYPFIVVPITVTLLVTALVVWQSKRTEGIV
Procedure: A. Binding Studies with SK-N-MC Cells (Expressing the Human CGRP Receptor)
SK-N-MC membranes (˜20 μg protein) are incubated for 180 minutes at ambient temperature with 50 pM ^125I-iodotyrosyl-Calcitonin-Gene-Related Peptide and increasing concentrations of the test substances in a total volume of […] (assay buffer: 10 mM tris, 50 mM NaCl, 5 mM MgCl2, 1 mM EDTA, pH=7.4). The incubation is ended by rapid filtration through GF/B-glass fibre filters treated with polyethyleneimine (0.1%) using a cell harvester. The protein-bound radioactivity is measured using a gamma counter. Non-specific binding is defined as the bound radioactivity after the presence of 1 μM BIBN4096BS during incubation.
The concentration binding curves are analysed using computer-aided non-linear curve fitting.

Row | Ki [nM] | SMILES
1 | 3.8 | CC1(C)CN(C(=O)c2cc(N3CCC(n4c(=O)[nH]c5ncccc54)CC3)[nH]c(=O)c2)c2ccc(F)cc21 [Example 4, 4′-(5-fluoro-3,3-dimethyl-2,3-dihydroindole-1-carbonyl)-4-(2-oxo-2,3-dihydroimidazo[4,5-b]-pyridin-1-yl)-3,4,5,6-tetrahydro-2H,1′H-[1,2′]bipyridinyl-6′-one]
2 | 480 | Cn1c(N2CCC(n3c(=O)[nH]c4ncccc43)CC2)cc(C(=O)N2CCc3cc(F)ccc32)cc1=O [Example 2, 4′-(5-fluoro-2,3-dihydroindole-1-carbonyl)-1′-methyl-4-(2-oxo-2,3-dihydroimidazo[4,5-b]-pyridin-1-yl)-3,4,5,6-tetrahydro-2H,1′H-[1,2′]bipyridinyl-6′-one]
3 | 8.4 | COc1ccc2c(c1)CCN(C1CCN(c3cc(C(=O)N4CCc5cc(F)ccc54)cc(=O)[nH]3)CC1)C(=O)N2 [Example 3, 3-[4′-(5-fluoro-2,3-dihydroindole-1-carbonyl)-6′-oxo-3,4,5,6,1′,6′-hexahydro-2H-1,2′-bipyridinyl-4-yl]-7-methoxy-1,3,4,5-tetrahydro-1,3-benzodiazepin-2-one]
